Tested on: breast and ovarian cancer cells
Assay: CCK-8 cell proliferation/viability at fixed concentration
Type: cell-based, human
Details: 48 or 72 h
Method: Cell viability assay was performed as described before. Briefly, 2500/well of breast or ovarian cancer cells were seeded into a 96-well plate; grown overnight; treated with indicated concentration of Olaparib, LY2835219, ZC22, LP-1, GC-24, or cisplatin alone or together for an indicated amount of time; and then incubated with Cell Counting kit-8 (CCK-8) substrate (Dojindo, Kumamoto, Kyushu Island, Japan) for 1–2 h at 37 °C. Cell viability was calculated by the absorbance at 450 nm measured by the GloMax Explorer (Promega, Madison, WI, USA). Cells without treatment were set as 100%, and medium control (no cells) was set as 0%.
Figure 2 ZC-22 suppresses proliferation of breast and ovarian cancer cells. (A) IC50 of ZC-22, Olaparib, and LY2835219 (Abemaciclib) in breast and ovarian cancer cells. […] Cell proliferation was analyzed by CCK-8 assays. […] Cell proliferation assay was analyzed by CCK-8 assays. […]
Figure 5 ZC-22 increases the sensitivity of breast and ovarian cancer cells to cisplatin. […] Representative pictures of EdU staining are shown in the left panels, and quantification of percentage of EdU-positive cells was presented in the bar graphs on the right, n = 3. […] (D) Representative pictures (left) and quantification of percentage (right) of γH2A.X-positive cells in MDA-MB-231 (top panels) and OVCAR5 (bottom panels) cells treated with DDP alone or together with OLA or ZC-22 for 24 h, n = 3. […]

SMILES: Cc1nc2c(F)cc(-c3nc(Nc4ccc(N5CCN(C(=O)c6cc(Cc7n[nH]c(=O)c8ccccc78)ccc6F)CC5)cn4)ncc3F)cc2n1C(C)C [ZC-22, 4-(4-fluoro-3-(4-(6-((5-fluoro-4-(4-fluoro-1-isopropyl-2-methyl-1H-benzo[d]imidazole-6-yl)pyrimidin-2-yl)amino)pyridin-3-yl)piperazine-1-carbonyl)benzyl)phthalazin-1(2H)-one]
- growth inhibition compared with Olaparib and Abemaciclib alone and combined (MDA-MB-231 2 μM, SUM-159, OVCAR5, SKOV3 0.5 μM): better anti-tumor efficacy than the Olaparib and Abemaciclib monotherapy, and the combination therapy
- sensitization of cells to cisplatin (cell viability) (cisplatin 2.5 μM (SKOV3 5 μM) together with 2 μM or 0.5 μM compound): greatly sensitized breast and ovarian cancer cells to cisplatin

Reference: publication PMC8911181, “A Novel CDK4/6 and PARP Dual Inhibitor ZC-22 Effectively Suppresses Tumor Growth and Improves the Response to Cisplatin Treatment in Breast and Ovarian Cancer” (International Journal of Molecular Sciences, 2022)
